Results as given in ChEMBL document CHEMBL1138618, “NMDA receptor affinities of 1,2-diphenylethylamine and 1-(1,2-diphenylethyl)piperidine enantiomers and of related compounds” (Bioorg Med Chem, 2009).

Target: Glutamate NMDA receptor
Test: Displacement of [3H]MK801 from NMDA receptor in rat brain neuronal membrane; call rule not given here
Format: cell membranes

SMILES	Ki (read-out: Ki)	Ki
NCC(c1ccccc1)c1ccccc1	145 µM	
COc1ccc2c(c1)[C@]13CCCC[C@@H]1[C@H](C2)NCC3	1.7 µM	
C[C@@H](N)c1ccccc1	659 µM	
C[C@H](N)c1ccccc1	622 µM	
N[C@H](c1ccccc1)[C@H](N)c1ccccc1	4.12 µM	
N[C@@H](c1ccccc1)[C@H](O)c1ccccc1	142 µM	
N[C@H](CC1CCCCC1)C1CCCCC1	138 µM	
C[C@](N)(Cc1ccccc1)c1ccccc1	0.79 µM	
N[C@@H](Cc1ccccc1)c1ccccc1	0.7 µM	
C[C@@](N)(Cc1ccccc1)c1ccccc1	8.08 µM	
N[C@H](c1ccccc1)[C@@H](O)c1ccccc1	15.7 µM	
c1ccc(C[C@H](c2ccccc2)N2CCCCC2)cc1	5.25 µM	
N[C@H](Cc1ccccn1)c1ccccc1	84 µM	
c1ccc(C[C@@H](c2ccccc2)N2CCCCC2)cc1	0.12 µM	
N[C@]1(c2ccccc2Cl)CCCCC1=O	4.18 µM	
N[C@H](Cc1ccccc1)c1ccccc1	25.1 µM	
N[C@@H](c1ccccc1)[C@@H](N)c1ccccc1	51 µM	

SMILES	Ki (read-out: Ki)	Ki
N[C@@]1(c2ccccc2Cl)CCCCC1=O	55 µM	
CN[C@@]1(c2ccccc2Cl)CCCCC1=O	5.68 µM	
COC(=O)[C@@H](N)c1ccccc1	1980 µM	
COC(=O)[C@H](N)c1ccccc1	1370 µM	
N[C@@H](CC1CCCCC1)C1CCCCC1	271 µM	
COc1ccc2c(c1)C13CCCC[C@@H]1C(C2)NCC3 (single isomer, unassigned)		Not Active
N[C@H]1C[C@@H]1c1ccccc1 [(+)-TRANYLCYPROMINE]	269 µM	
NC(c1ccccc1)c1ccccc1 [AMINODIPHENYLMETHANE]	64 µM	
NCc1ccccc1 [BENZYLAMINE]	1060 µM	
C[C@H](N)Cc1ccccc1 [DEXTROAMPHETAMINE]	300 µM	
CN[C@]1(c2ccccc2Cl)CCCCC1=O [ESKETAMINE]	0.96 µM	
N[C@@H](Cc1ccccn1)c1ccccc1 [LANICEMINE]	14 µM	
C[C@@H](N)Cc1ccccc1 [LEVAMFETAMINE]	625 µM	
c1ccc(C2(N3CCCCC3)CCCCC2)cc1 [PHENCYCLIDINE]	0.27 µM	
NCCc1ccccc1 [PHENETHYLAMINE]	753 µM	
N[C@@H]1C[C@H]1c1ccccc1.N[C@H]1C[C@@H]1c1ccccc1 [TRANYLCYPROMINE]	544 µM	
